Measured values as given in publication PMC7504677, “Impact of N-Alkylamino Substituents on Serotonin Receptor (5-HTR) Affinity and Phosphodiesterase 10A (PDE10A) Inhibition of Isoindole-1,3-dione Derivatives” (Molecules, 2020).

Experiments:
5-HT7 receptor = 5-HT7 receptor (Homo sapiens, UniProt P34969); test: radioligand binding assay, [3H]-LSD; conditions: read-out: 5-HT7 1 µM ± SEM (% of control specific binding)
Procedure: (§1) Briefly: binding experiments were conducted in 96-well microplates in a total final volume of 250 μL of appropriate buffers. Reaction mix included 50 μL solution of test compound, 50 μL of radioligand ([^3H]8-OH-DPAT for 5-HT1A, and [^3H]-LSD for 5-HT7, respectively) and 150 μL of diluted membranes (see description and Table S2 in Supporting Materials). Specific assay conditions for each receptor are described elsewhere. The radioactivity was measured in a MicroBeta2 scintillation counter (PerkinElmer, USA). Each compound was tested in the assay as duplicate samples at 1 µM final concentrations. Results were expressed as percent inhibition of specific binding.

PDE10A = PDE10A (Homo sapiens, UniProt Q9Y233); test: luminescence PDE inhibition assay (PDElight HTS cAMP phosphodiesterase assay kit); type: biochemical; conditions: for inhibition at 3 µM / inhibition at 10 µM: 1 h, percentage of inhibition respective to vehicle control (DMSO); for IC50: SEM of three independent experiments performed in duplicate
PDE10A, sequence (Q9Y233 whole entry, species assumed): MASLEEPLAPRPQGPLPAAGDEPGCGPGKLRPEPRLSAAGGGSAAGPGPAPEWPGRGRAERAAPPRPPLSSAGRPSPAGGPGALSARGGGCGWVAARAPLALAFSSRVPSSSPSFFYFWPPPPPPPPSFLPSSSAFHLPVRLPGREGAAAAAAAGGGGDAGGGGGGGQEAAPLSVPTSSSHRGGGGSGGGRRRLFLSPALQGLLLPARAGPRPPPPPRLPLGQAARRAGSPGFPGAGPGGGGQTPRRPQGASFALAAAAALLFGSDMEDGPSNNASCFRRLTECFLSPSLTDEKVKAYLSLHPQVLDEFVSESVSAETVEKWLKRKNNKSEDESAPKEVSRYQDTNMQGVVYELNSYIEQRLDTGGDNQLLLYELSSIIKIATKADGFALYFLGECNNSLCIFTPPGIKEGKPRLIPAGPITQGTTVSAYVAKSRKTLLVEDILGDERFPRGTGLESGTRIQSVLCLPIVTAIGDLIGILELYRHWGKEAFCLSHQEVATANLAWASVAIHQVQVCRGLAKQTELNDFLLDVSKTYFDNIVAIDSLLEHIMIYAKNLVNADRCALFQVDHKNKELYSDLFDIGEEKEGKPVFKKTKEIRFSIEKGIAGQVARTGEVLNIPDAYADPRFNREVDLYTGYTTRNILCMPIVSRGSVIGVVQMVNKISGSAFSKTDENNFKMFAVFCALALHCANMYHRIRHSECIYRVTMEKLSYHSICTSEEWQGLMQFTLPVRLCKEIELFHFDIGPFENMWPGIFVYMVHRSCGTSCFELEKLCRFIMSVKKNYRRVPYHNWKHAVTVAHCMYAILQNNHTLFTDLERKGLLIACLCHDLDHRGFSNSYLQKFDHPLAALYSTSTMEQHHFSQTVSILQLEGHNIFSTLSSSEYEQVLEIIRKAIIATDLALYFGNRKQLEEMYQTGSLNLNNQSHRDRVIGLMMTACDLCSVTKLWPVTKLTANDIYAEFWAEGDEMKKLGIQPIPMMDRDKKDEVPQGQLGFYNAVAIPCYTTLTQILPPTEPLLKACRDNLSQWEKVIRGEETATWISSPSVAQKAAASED
Procedure: Test and reference compounds were dissolved in dimethyl sulfoxide (DMSO) at a concentration of 1 mM and further diluted in assay buffer in order to obtain the final concentration of compounds: 10 µM and 3 µM, respectively. All reactions were carried out at 37 °C in white, half-area 96-well plates (Perkin Elmer, Waltham, MA, USA). The inhibition of PDE 10A enzyme was measured using the PDElight HTS cAMP phosphodiesterase assay kit (Lonza) according to the manufacturer’s recommendations. 2.5 U of PDE 10A enzyme was preincubated either with DMSO (vehicle control) or compound for 20 min before incubation with the substrate, cAMP (final concentration 1.25 µM), for 1 h. Then, PDELight AMP Detection Reagent was added. After 10 min incubation, the luminescence was measured in a multifunction plate reader (POLARstar Omega, BMG Labtech, Ortenberg, Germany).

5-HT1A receptor = biological target: T1, 5-HT1A receptor (Homo sapiens, UniProt P08908); test: radioligand binding assay, [3H]8-OH-DPAT; conditions: read-out: 5-HT1A 1 µM ± SEM (% of control specific binding)
T1 sequence (P08908 1-422): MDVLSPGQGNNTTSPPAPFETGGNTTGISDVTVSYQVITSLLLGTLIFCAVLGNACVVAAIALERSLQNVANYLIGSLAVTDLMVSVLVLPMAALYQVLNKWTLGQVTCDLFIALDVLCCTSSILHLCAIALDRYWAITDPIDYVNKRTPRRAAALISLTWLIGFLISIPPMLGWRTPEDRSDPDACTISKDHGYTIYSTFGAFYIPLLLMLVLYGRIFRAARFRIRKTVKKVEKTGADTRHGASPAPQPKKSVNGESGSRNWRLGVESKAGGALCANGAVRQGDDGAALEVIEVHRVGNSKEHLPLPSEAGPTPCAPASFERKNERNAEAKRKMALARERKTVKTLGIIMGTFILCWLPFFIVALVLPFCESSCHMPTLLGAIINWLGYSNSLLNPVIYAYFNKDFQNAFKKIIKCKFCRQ
Procedure: as §1

5-HT7 receptor, sequence (P34969 whole entry): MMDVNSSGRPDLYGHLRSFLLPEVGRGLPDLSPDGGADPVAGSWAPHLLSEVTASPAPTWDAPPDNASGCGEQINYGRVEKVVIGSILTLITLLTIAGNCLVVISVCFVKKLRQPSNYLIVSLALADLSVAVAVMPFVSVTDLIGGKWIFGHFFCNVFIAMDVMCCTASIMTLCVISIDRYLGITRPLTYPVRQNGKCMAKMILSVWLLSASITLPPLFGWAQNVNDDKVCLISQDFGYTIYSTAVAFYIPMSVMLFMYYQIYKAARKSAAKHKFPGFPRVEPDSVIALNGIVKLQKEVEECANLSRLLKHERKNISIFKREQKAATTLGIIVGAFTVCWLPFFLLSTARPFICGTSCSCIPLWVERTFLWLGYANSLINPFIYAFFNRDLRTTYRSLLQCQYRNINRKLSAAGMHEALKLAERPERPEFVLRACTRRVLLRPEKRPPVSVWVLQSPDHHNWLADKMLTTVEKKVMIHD

| inhibition at 1 µM (5-HT7 receptor) | melting point | inhibition at 3 µM (PDE10A) | inhibition at 10 µM (PDE10A) | inhibition at 1 µM (5-HT1A receptor) | IC50 (PDE10A) | Structure (SMILES) |
| --- | --- | --- | --- | --- | --- | --- |
| 0% | 123 to 124 °C | 5% | 10% | 13 ± 2% |  | COc1cccc2c1C(=O)N(CCc1ccccc1)C2=O [Compound 12, 4-Methoxy-2-(2-phenylethyl)-1H-isoindole-1,3(2H)-dione] |
| 0% | 144 to 145 °C | 0% | 0% | 10 ± 1% |  | COc1cccc2c1C(=O)N(Cc1ccccn1)C2=O [Compound 10, 4-Methoxy-2-(pyridin-2-ylmethyl)-1H-isoindole-1,3(2H)-dione] |
| 0% | 157 to 158 °C | 0% | 0% | 12 ± 4% |  | COc1cccc2c1C(=O)N(CCN1CCc3ccccc3C1)C2=O [Compound 4, 2-[2-(3,4-Dihydroisoquinolin-2(1H)-yl)ethyl]-4-methoxy-1H-isoindole-1,3(2H)-dione] |
| 0% | 103 to 104 °C | 7% | 7% | 28 ± 3% |  | COc1cccc2c1C(=O)N(CCCN1CCC3CCCCC3C1)C2=O (centres unmarked) [Compound 8, 2-[3-(Octahydroisoquinolin-2(1H)-yl)propyl]-4-methoxy-1H-isoindole-1,3(2H)-dione] |
| 0% | 108 to 109 °C | 0% | 0% | 27 ± 3% |  | COc1cc2c(cc1OC)CN(CCN1C(=O)c3cccc(OC)c3C1=O)CC2 [Compound 3, 2-[2-(6,7-Dimethoxy-3,4-dihydroisoquinolin-2(1H)-yl)ethyl]-4-methoxy-1H-isoindole-1,3(2H)-dione] |
| 14% | 94 to 95 °C | 11% | 13% | 32 ± 3% |  | COc1cccc2c1C(=O)N(CCCc1ccccc1)C2=O [Compound 16, 4-Methoxy-2-(3-phenylpropyl)-1H-isoindole-1,3(2H)-dione] |
| 0% | 155 to 157 °C | 0% | 0% | 59 ± 4% |  | COc1cccc2c1C(=O)N(CCc1ccccn1)C2=O [Compound 13, 4-Methoxy-2-[2-(pyridin-2-yl)ethyl]-1H-isoindole-1,3(2H)-dione] |
| 0% | 107 to 109 °C | 0% | 0% | 32 ± 4% |  | COc1cc2c(cc1OC)CN(CCCN1C(=O)c3cccc(OC)c3C1=O)CC2 [Compound 6, 2-[3-(6,7-Dimethoxy-3,4-dihydroisoquinolin-2(1H)-yl)propyl]-4-methoxy-1H-isoindole-1,3(2H)-dione] |
| 10 ± 3% | 217 to 218 °C | 73% | 86% | 16 ± 5% | 1.001 ± 0.009 µM | COc1cccc2c1C(=O)N(CCCc1nc3ccccc3[nH]1)C2=O [Compound 17, 2-[3-(1H-Benzimidazol-2-yl)propyl]-4-methoxy-1H-isoindole-1,3(2H)-dione] |
| 51 ± 2% | 92 to 93 °C | 18% | 19% | 33 ± 2% |  | COc1cccc2c1C(=O)N(CCCN1CCc3ccccc3C1)C2=O [Compound 7, 2-[3-(3,4-Dihydroisoquinolin-2(1H)-yl)propyl]-4-methoxy-1H-isoindole-1,3(2H)-dione] |
| 0% | 145 to 146 °C | 0% | 0% | 25 ± 3% |  | COc1cccc2c1C(=O)N(CCN1CCC3CCCCC3C1)C2=O (centres unmarked) [Compound 5, 2-[2-(Octahydroisoquinolin-2(1H)-yl)ethyl]-4-methoxy-1H-isoindole-1,3(2H)-dione] |
| 0% | 167 to 168 °C | 0% | 0% | 6 ± 2% |  | COc1cccc2c1C(=O)N(Cc1ccccc1)C2=O [Compound 9, 2-Benzyl-4-methoxy-1H-isoindole-1,3(2H)-dione] |
| 0% | 239 to 240 °C | 7% | 15% | 39 ± 3% |  | COc1cccc2c1C(=O)N(Cc1nc3ccccc3[nH]1)C2=O [Compound 11, 2-(1H-Benzimidazol-2-ylmethyl)-4-methoxy-1H-isoindole-1,3(2H)-dione] |
| 15 ± 2% | 179 to 180 °C | 47% | 73% | 20 ± 3% | 5.65 ± 0.495 µM | O=C1c2ccccc2C(=O)N1CCCCc1nc2ccccc2[nH]1 [Compound 22, 2-[4-(1H-Benzimidazol-2-yl)butyl]-1H-isoindole-1,3(2H)-dione] |
| 6% | 108 to 109 °C | 52% | 75% | 28 ± 2% | 4.31 ± 0.365 µM | COc1cccc2c1C(=O)N(CCCCCc1nc3ccccc3[nH]1)C2=O [Compound 19, 2-[5-(1H-Benzimidazol-2-yl)pentyl]-4-methoxy-1H-isoindole-1,3(2H)-dione] |
| 34 ± 2% | 168 to 169 °C | 26% | 58% | 48 ± 3% |  | O=C1c2ccccc2C(=O)N1CCCCCc1nc2ccccc2[nH]1 [Compound 23, 2-[5-(1H-Benzimidazol-2-yl)pentyl]-1H-isoindole-1,3(2H)-dione] |
| 14 ± 2% | 190 to 191 °C | 16% | 45% | 27 ± 2% |  | O=C1c2ccccc2C(=O)N1CCCc1nc2ccccc2[nH]1 [Compound 21, 2-[3-(1H-Benzimidazol-2-yl)propyl]-1H-isoindole-1,3(2H)-dione] |
| 36% | 202 to 203 °C | 0% | 1% | 26 ± 2% |  | O=C1c2ccccc2C(=O)N1CCc1nc2ccccc2[nH]1 [Compound 20, 2-[2-(1H-Benzimidazol-2-yl)ethyl]-1H-isoindole-1,3(2H)-dione] |
| 0% | 197 to 198 °C | 40% | 70% | 44 ± 5% | 6.71 ± 0.195 µM | COc1cccc2c1C(=O)N(CCc1nc3ccccc3[nH]1)C2=O [Compound 15, 2-[2-(1H-Benzimidazol-2-yl)ethyl]-4-methoxy-1H-isoindole-1,3(2H)-dione] |

| Structure (SMILES) | inhibition at 1 µM (5-HT7 receptor) | melting point | inhibition at 3 µM (PDE10A) | inhibition at 10 µM (PDE10A) | inhibition at 1 µM (5-HT1A receptor) | IC50 (PDE10A) |
| --- | --- | --- | --- | --- | --- | --- |
| COc1cccc2c1C(=O)N(CCc1c[nH]cn1)C2=O [Compound 14, 2-[2-(1H-Imidazol-4-yl)ethyl]-4-methoxy-1H-isoindole-1,3(2H)-dione] | 0% | 227 to 228 °C | 0% | 0% | 21 ± 1% |  |
